Measured values: PMC6801822, “The Bactericidal Activity of Temporin Analogues Against Methicillin Resistant Staphylococcus aureus” (International Journal of Molecular Sciences, 2019)
In brackets after ≈: the same amount, converted by molar mass. Like-named read-outs stand apart in the source and are kept apart here. Non-standard residues stand in square brackets, D forms with d. Residues, ends and D or L forms follow the SMILES beside them. AEEA = NCCOCCOCC(=O)O

Columns and labels:
S. aureus USA300 [1] = assay: LIVE/DEAD BacLight staining (SYTO9/PI); format: cell-based, Staphylococcus aureus; conditions: 3 h, n = 2
Method: USA300 cells were collected from overnight cultures, at the end of the exponential growth phase and the beginning of the stationary phase, washed and suspended at 2 × 10^7 bacteria/mL and staphylococci were treated with DAL-PEG-DK5 (0.5–50 µg/mL) for 3 h. In order to obtain a standard curve, five different proportions of live and dead bacteria were mixed prior to staining. After the incubation, the 100 µL of bacterial suspensions were transferred to flat bottom black 96-well microtitration plate. Staining solution containing SYTO9 and PI (100 µL) prepared according to manufacturer’s instructions was then mixed with bacterial suspensions. Samples were incubated at room temperature in the dark for 15 min and fluorescence intensity was measured with FlexStation3 Multimode Microplate Reader using a 485 nm excitation filter (for both SYTO9 and PI) and a 530 nm (SYTO9 emission wavelength) and 630 nm (PI emission wavelength) emission filter. The data were analyzed by dividing the fluorescence intensity of the stained bacterial suspensions at green emission by the cell fluorescence intensity of red fluorescence. All samples were prepared in triplicates.

[2] = test system: S. aureus USA300 cytoplasmic membrane; assay: Sytox green uptake (membrane permeabilization); format: cell-based, Staphylococcus aureus
Method: The USA300 strain was grown to mid-logarithmic phase at 37 °C, washed, and resuspended in 10 mM sodium phosphate buffer (pH 7.2) Bacterial cells were then incubated with 1 µM Sytox green for 15 min in the dark. After the addition of desired concentration of peptide conjugate (5–100 µg/mL), the time-dependent increases in fluorescence caused by the binding of the cationic dye to intracellular DNA were monitored (excitation at 485 nm and emission at 520 nm).

HaCaT cells [3] = assay: MTT cell viability test; format: cell-based, human
Method: (§1) Figure 3 The influence of DAL-PEG-DK5 on physiology of human keratinocytes. The potentially toxic effect of DAL-PEG-DK5 on HaCaT cells was evaluated using (A) MTT and (B) LDH assay. Cells were plated on 96-well plates and incubated overnight. Next, keratinocytes were treated with the peptide at different concentrations (5–200 μg/mL) for 3, 6, 18 h. Mean ± SD n = 2. ** p < 0.005 *** p < 0.001 **** p < 0.0001; 2way ANOVA. (C) Morphology of HaCaT cells was examined by confocal laser scanning microscopy. HaCaT cells were treated with CFS-conjugated DAL-PEG-DK5 (25 μg/mL) for 30 min at 37 °C and were stained with: DAPI and phalloidin for nuclear detection and actin cytoskeleton detection, respectively. Blue – DNA; red – f-actin; green-peptide conjugate; scale bar: 10 μm. Images present single slice of XY stacks.
The viability of HaCaT cells was examined by a 3-(4,5-dimethylthiazol-2-yl)-2,5-diphenyltetrazolium bromide (MTT, Sigma-Aldrich) reduction assay. In brief, cells were incubated with 10% (v/v) of a 5 mg/mL MTT solution for 1 to 2 h at 37 °C until purple precipitate is visible and acidified isopropanol was added followed by measuring of the absorbance at a wavelength of 570 nm.

HaCaT cells [4] = assay: LDH release assay (CytoTox96); format: cell-based, human; conditions: for cytotoxicity (LDH), % of cells: HaCaT, 200 μg/mL
Method: as §1
To assess the effect of peptides on the integrity of the plasma membrane, the LDH release assay was performed using the CytoTox96 nonradioactive cytotoxicity assay kit (Promega, Madison, WI, USA) according to the manufacturer’s instructions. Cytotoxicity was calculated with the formula: % cytotoxicity = 100 × (experimental LDH release/ maximum LDH release), where maximum LDH release is after lysis solution addition (Triton X-100). Relative amounts of LDH release were measured (absorbance at 490 nm) using plate reader SpectraMax (Molecular Device, Wokingham, UK). All assays were performed in triplicate.

[5] = test system: S. aureus USA300 (MRSA) in suspension; assay: Killing of MRSA in suspension, CFU count; format: cell-based, Staphylococcus aureus; conditions: MRSA 2 × 10^6 CFU/mL, peptide 50 μg/mL, 1 h, n = 2
S. aureus USA300 [6] = conditions: MRSA; equal to 40 μg/mL
Method: (§2) Antimicrobial activity of peptides was analyzed through determination of MIC parameter according to the standard microdilution technique performed on 96-well plates. Mueller-Hinton broth (MHB, Sigma Aldrich, St. Louis, MO, USA) was used as the working medium for all bacterial strains. Briefly, inoculum was prepared from freshly grown cultures of bacteria being at their exponential phase of growth. Each well of 96-well plates containing 100 µL of serially diluted peptides in PBS at desired concentration was inoculated with 100 µL of 10^5 CFU/mL of bacterial suspension. Then plates were incubated overnight 37 °C and absorbance was read at 600 nm after 24 h. Wells without peptide were treated as the positive control, while uninoculated MHB was defined as the negative control. All measurements were run in triplicates.

S. aureus Newman = conditions: S. aureus Newman; broth microdilution, MHB, 37 °C, 24 h, triplicates
Method: as §2

[7] = test system: MRSA clinical isolate 56A1; conditions: MRSA clinical isolate 56A1 (skin); broth microdilution, MHB, 24 h
Method: as §2

[8] = test system: MRSA clinical isolate 1694; conditions: MRSA clinical isolate 1694 (blood); broth microdilution, MHB, 24 h
Method: as §2

[9] = test system: MRSA clinical isolate 2492; conditions: MRSA clinical isolate 2492 (blood); broth microdilution, MHB, 24 h
Method: as §2

[10] = test system: MRSA clinical isolate 2706; conditions: MRSA clinical isolate 2706 (blood); broth microdilution, MHB, 24 h
Method: as §2

[11] = test system: MRSA clinical isolate 3417; conditions: MRSA clinical isolate 3417 (blood); broth microdilution, MHB, 24 h
Method: as §2

[12] = test system: MRSA clinical isolate 4187; conditions: MRSA clinical isolate 4187 (blood); broth microdilution, MHB, 24 h
Method: as §2

[13] = test system: MRSA clinical isolate 6674; conditions: MRSA clinical isolate 6674 (blood); broth microdilution, MHB, 24 h
Method: as §2

[14] = test system: MRSA clinical isolate 7718; conditions: MRSA clinical isolate 7718 (blood); broth microdilution, MHB, 24 h
Method: as §2

[15] = test system: MRSA S. aureus strains (clinical isolates)
Method: as §2

[16] = test system: intracellular S. aureus USA300 in HaCaT cells; assay: Killing of intracellular S. aureus in keratinocytes, CFU count
Method: (A) USA300 survival within infected HaCaT cells. Keratinocytes were infected with USA300 (MOI 1:5, 1:25, 1:50, 1:100) for 2.5 h and treated with DAL-PEG-DK5 (50 μg/mL) for 3 h. Afterwards, keratinocytes were lysed and plated on agar plates for counting of bacteria. The number of viable bacterial cells is expressed as CFU/mL with respect to the number of intracellular bacteria in the corresponding control samples. The data shown is representative of two separate experiments performed in triplicate. Mean ± SD n = 2. * p < 0.01; ** p < 0.005; one-way ANOVA. (B) Keratinocytes were infected with USA300 (MOI 1:50) for 2.5 h and treated with DAL-PEG-DK5 (50 μg/mL) for indicated time points (1, 3, 6 h). Afterwards, keratinocytes were lysed and plated on agar plates for counting of bacteria. The number of viable bacterial cells is expressed as a CFU/mL with respect to the number of intracellular bacteria in the corresponding control samples. Mean ± SD n = 2. * p < 0.01; ** p < 0.005; **** p < 0.0001; one-way ANOVA. […] (C) Keratinocytes were infected with USA300 (MOI 1:50) for 2.5 h and treated with DAL-PEG-DK5 (50 μg/mL) for 1 h. Afterwards, keratinocytes were lysed and plated on agar plates for counting of bacteria. […] The number of viable bacterial cells is expressed as a % of control with respect to the number of intracellular bacteria/bacteria in suspension in the corresponding control samples. […]

In the case of `CC[C@H](C)[C@H](NC(=O)COCCOCCNC(=O)[C@H](CCCNC(=N)N)NC(=O)[C@H](CC(C)C)NC(=O)[C@H](Cc1ccccc1)NC(=O)CNC(=O)[C@@H](C)NC(=O)[C@@H](N)Cc1ccc(O)cc1)C(=O)N[C@@H](CCCCN)C(=O)N[C@@H](CCCCN)C(=O)N[C@H](C(=O)N[C@@H](CC(C)C)C(=O)N[C@@H](CO)C(=O)N[C@H](CCCCN)C(=O)N[C@H](C(=O)N[C@@H](CCCCN)C(=O)N[C@@H](CCCCN)C(=O)N[C@@H](CC(C)C)C(=O)N[C@@H](CC(C)C)C(N)=O)[C@@H](C)CC)[C@@H](C)CC` [DAL-PEG-DK5] (H-Y[dA]GFLR[AEEA]IKKILS[dK]IKKLL-NH2; N-terminus assumed), the live bacteria (S. aureus USA300 [1]; USA300, 5 μg/mL) is reported as 20%, the live bacteria (S. aureus USA300 [1]; USA300, 10 μg/mL) is reported as 5% and the “permeabilization of the cell membrane” value ([2]; 5 min post-treatment, peptide 10 μg) is reported as “marked permeabilization of the cell membrane”. For the same compound, the “concentration at which permeabilization of the bacterial membrane reached a plateau” value ([2]; USA300, 1 μM Sytox green, 10 mM sodium phosphate buffer pH 7.2, up to 60 min) was 25 µg/mL, the “effect on metabolism of HaCaT cells (MTT)” value (HaCaT cells [3]; 5 to 75 μg/mL, 3, 6 and 18 h, n = 2) was “did not affect the metabolism of HaCaT cells” and the “effect on metabolically active HaCaT cells (MTT)” value (HaCaT cells [3]; 100 or 200 μg/mL, 3, 6, 18 h) was “reduced the number of metabolically active cells in a concentration-dependent manner”. The “LDH release from HaCaT cells” value (HaCaT cells [4]; 75 μg/mL) was “low, but still significant, release of dehydrogenase”, the “cytotoxicity (LDH), % of cells” value (HaCaT cells [4]; 3 and 6 h) was 40% and the “cytotoxicity (LDH), % of cells” value (HaCaT cells [4]; 18 h) was 100%. The “non-toxic dose for HaCaT cells” value (HaCaT cells [4]; based on MTT and LDH data) was ≤ 50 µg/mL, the “reduction in the number of live bacteria in suspension” value [5] was 74% and the MIC (S. aureus USA300 [6]) was 17.56 µM (≈ 40 µg/mL). For the same compound, the MIC (S. aureus Newman) was 140 µg/mL (≈ 61.5 µM), the MIC [7] was 40 µg/mL (≈ 17.6 µM) and the MIC [8] was 70 µg/mL (≈ 30.7 µM). The MIC [9] was 40 µg/mL (≈ 17.6 µM), the MIC [10] was 40 µg/mL (≈ 17.6 µM) and the MIC [11] was 40 µg/mL (≈ 17.6 µM). For the same compound, the MIC [12] was 40 µg/mL (≈ 17.6 µM), the MIC [13] was 40 µg/mL (≈ 17.6 µM) and the MIC [14] was 50 µg/mL (≈ 22 µM). For the same compound, the “MIC against the majority of tested MRSA strains (90%)” value ([15]; conversion of 40 μg/mL) was 17.56 µM, the “MIC against the majority of tested MRSA strains (90%)” value ([15]; estimate of the discussion) was 40 µg/mL and the “reduction of intracellular USA300 load” value ([16]; HaCaT infected 2.5 h at MOI 1:50 and 1:100, peptide 50 μg/mL, 3 h) was “more than 60%”. The “reduction of MRSA load in keratinocytes” value ([16]; HaCaT, USA300 MOI 1:50, peptide 50 μg/mL (1.25 × MIC), 1 h, n = 2) was 71.5%.
